This note sets out measurements from paper PMC4414331 (The Prostate, 2012).

In this test the target is prostate-specific membrane antigen (PSMA) (Homo sapiens, UniProt Q04609). Nature of the test: purified PSMA, PABGgG hydrolysis by HPLC. The format is biochemical.
Sequence of prostate-specific membrane antigen (PSMA) (Q04609 whole entry): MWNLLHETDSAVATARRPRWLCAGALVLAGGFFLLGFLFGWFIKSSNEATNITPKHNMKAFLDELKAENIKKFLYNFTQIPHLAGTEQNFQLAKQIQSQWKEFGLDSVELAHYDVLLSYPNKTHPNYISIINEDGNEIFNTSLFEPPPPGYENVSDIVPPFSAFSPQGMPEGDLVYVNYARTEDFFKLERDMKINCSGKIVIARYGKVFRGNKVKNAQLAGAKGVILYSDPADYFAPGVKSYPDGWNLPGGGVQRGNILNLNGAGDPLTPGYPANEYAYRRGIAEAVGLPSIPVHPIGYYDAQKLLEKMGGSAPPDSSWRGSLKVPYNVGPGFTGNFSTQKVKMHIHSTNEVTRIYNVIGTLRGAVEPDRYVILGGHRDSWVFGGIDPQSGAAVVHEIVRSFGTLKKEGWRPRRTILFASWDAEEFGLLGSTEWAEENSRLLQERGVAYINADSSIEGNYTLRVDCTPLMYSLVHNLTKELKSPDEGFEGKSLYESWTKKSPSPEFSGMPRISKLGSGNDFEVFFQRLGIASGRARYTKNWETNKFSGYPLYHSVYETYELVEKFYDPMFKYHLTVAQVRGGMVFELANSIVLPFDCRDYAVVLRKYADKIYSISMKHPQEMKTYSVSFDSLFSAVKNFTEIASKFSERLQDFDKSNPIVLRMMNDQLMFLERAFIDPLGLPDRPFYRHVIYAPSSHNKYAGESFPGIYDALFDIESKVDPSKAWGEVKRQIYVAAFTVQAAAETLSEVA

Substance DBCO-PEG4-CTT-54.2 [compound 6] showed an IC50 of 6.6 nM.

Consider DBCO-PEG4-CTT-54 [compound 5], for which half-maximal inhibition (IC50) required 1 nM.
